Experimental data reported in patent publication US6977141B2, “Direct adsorption scintillation assay for measuring enzyme activity and assaying biochemical processes” (Vicuron Pharmaceuticals Inc., priority 1998, dated 2005).

Target: MurA (Escherichia coli, UniProt P0A749)
Experiment: Direct adsorption scintillation assay (DASA) of the coupled MurA-MurB-MurC reaction, detection of enzyme inhibition
Type: biochemical
Experimental: A reaction mixture was prepared, of which 2 μl contains 38 ng MurA, 34 ng MurB, 34 ng MurC, 40 pmol ATP, 40 pmol UDP-NAcGlc, 40 pmol PEP, 40 pmol NADPH, 4 pmol L-[^3H]-alanine (72.3 Ci/mmol) in 50 mM Tris-HCl, pH 8, 20 mM MgCl2, 20 mM (NH4)2SO4, 1 mM DTT, 0.005% Brij-35. The mixture was incubated at room temperature for one hour. After one hour, 0.25 μl of the reaction mixture was transferred into each well of the poly-D-lysine coated FLASHPLATE™; each well contained 100 μl of 10 mM acetic acid, pH 3.0. The scintillation was counted using the TOPCOUNT™.
Enzyme mixtures (with 60 ng MurA, 8 ng MurB and 60 ng MurC present in each 2 μl sample) were prepared. The enzyme-phosphomycin mixture was pre-incubated at room temperature for 30 minutes. The substrates, as prepared in Example 2, were then added to the mixture to start the reaction. After 30 minutes of reaction at room temperature, 0.25 μl of the reaction mixture was transferred into each well of the poly-D-lysine coated FLASHPLATE™; each well contained 100 μl of 10 mM acetic acid. The scintillation was counted using the TOPCOUNT™.

Sequence of MurA (P0A749 whole entry): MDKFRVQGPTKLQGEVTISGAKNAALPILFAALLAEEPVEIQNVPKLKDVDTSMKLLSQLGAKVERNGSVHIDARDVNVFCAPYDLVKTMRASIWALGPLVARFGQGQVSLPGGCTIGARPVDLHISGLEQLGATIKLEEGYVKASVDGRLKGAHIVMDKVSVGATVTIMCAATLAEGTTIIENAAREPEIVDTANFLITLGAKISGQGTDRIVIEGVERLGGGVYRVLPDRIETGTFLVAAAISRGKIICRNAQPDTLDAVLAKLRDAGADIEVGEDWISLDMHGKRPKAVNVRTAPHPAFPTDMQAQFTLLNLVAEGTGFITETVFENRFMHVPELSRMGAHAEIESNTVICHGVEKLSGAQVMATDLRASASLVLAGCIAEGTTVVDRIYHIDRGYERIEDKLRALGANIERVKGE

How did the “scintillation count with increasing inhibitor concentration (FIG. 3)” value (60 ng MurA, 8 ng MurB, 60 ng MurC per 2 μl, 30 min pre-incubation at room temperature without UDP-NAcGlc, 30 min reaction, poly-D-lysine coated FLASHPLATE) turn out when C[C@@H]1O[C@@H]1P(=O)(O)O [phosphomycin] was run?
Its value is “decreased scintillation count”.

What about the IC50 (pre-incubation carried out in the absence of UDP-NAc-Glu, qualitative statement, no number given) of the same compound?
Its IC50 is “relatively high”.
